Test results published in patent US11628147B2, “Vitamin K2 compositions for the treatment of drug induced neuropathy” (priority 2017, dated 2023).

Columns and labels:
[1] = in vivo; cited from earlier work
[2] = tested on: symptoms of drug-induced peripheral neuropathy in multiple myeloma patients on chemotherapy; assay: Open labelled study of vitamin K2-7 on drug-induced peripheral neuropathy, symptoms scored by VAS; format: in vivo, human; settings: for VAS Score: scale 0-10
Procedure: An open labelled study was conducted to evaluate the effect of vitamin K2-7 on drug-induced peripheral neuropathy. Patients who were diagnosed with multiple myeloma and are on chemotherapy treatment for the same, were assessed for the occurrence of symptoms of peripheral neuropathy and then selected. Patients were given 2 capsules of 100 mcg or 350 mcg of vitamin K2-7 along with the ongoing chemotherapy. The evaluation of symptoms of peripheral neuropathy (such as tingling, numbness, burning sensation, muscle cramps etc.) were assessed by VAS score (Schematic 1) from 0 to 10 (nil to unbearable). The scale has been used in various studies to measure the intensity and severity of various symptoms of neuropathy.
As the patients continued with the therapy, it was observed that the VAS score for all the symptoms decreased to between the range of “1” and “2”. This decrease has happened over a period of 2 to 5 months, depending upon the individual cases treated. […] The examples given in Table 1, summarises the data for 11 patients who were on vitamin K2-7 therapy for drug-induced peripheral neuropathy due to treatment for multiple myeloma. In Table 1, treatment administered refer to the cyclical chemotherapy provided to the patients of multiple myeloma (MM). These cycles are normally of 3 weeks or 21 days period, based on the attending physician's assessment of the patient's condition and tolerance.
However, vitamin K2-7 was administered daily as two […] capsules.
Treatment with vitamin K2-7 of subjects continued even after their having reached VAS score of “2”.
The gradation was judged by Physician based on following criteria. By using Visual Analog Scale, i.e. 0-10 point scale: 0=Absent; 1-3=Mild; 4-6=Moderate; 7-10=Severe.

[3] = natural forms, even at high doses; cited from earlier work

SMILES | half-life [1] | improvement in peripheral neuropathy ([2]; 1 of 11 patients who remained on 100 μg two times a day daily) | VAS Score ([2]; Patient 1, chemotherapy Bortezomib, Cyclophosphamide, Dexamethasone since June 2014, K2-7 from 16 Jun. 15 (350 μg), VAS before 8, scored 10 Dec. 15) | VAS Score ([2]; Patient 2, chemotherapy Lenalidomide, Dexamethasone since 2014, K2-7 from 25 Jun. 15 (350 μg), VAS before 8, scored 05 Nov. 15) | VAS Score ([2]; Patient 3, chemotherapy Lenalidomide, Dexamethasone, Zolendronic Acid since 2015, K2-7 from 19 Aug. 15 (100 μg), VAS before 8, scored 14 Mar. 16) | VAS Score ([2]; Patient 4, chemotherapy Bortezomib, Cyclophosphamide, Dexamethasone since 2015, K2-7 from 09 Jun. 16 (350 μg), VAS before 8, scored 22 Dec. 16) | VAS Score ([2]; Patient 5, chemotherapy Bortezomib, Cyclophosphamide, Dexamethasone since 2016, K2-7 from 23 Feb. 17 (350 μg), VAS before 9, scored 12 Aug. 17) | VAS Score ([2]; Patient 6, chemotherapy Rituximab, Cyclophosphamide, Doxorubicin, Vincristine, Prednisolone since November 2014, K2-7 from 22 May 17 (350 μg), VAS before 9, scored 04 Oct. 17) | VAS Score ([2]; Patient 7, chemotherapy Lenalidomide, Dexamethasone since 2010, K2-7 from 30 Jun. 17 (350 μg), VAS before 8, scored 27 Dec. 17) | VAS Score ([2]; Patient 8, chemotherapy Bortezomib, Cyclophosphamide, Dexamethasone since March 2017, K2-7 from 03 Nov. 17 (350 μg), VAS before 7, scored 03 Apr. 18) | VAS Score ([2]; Patient 9, chemotherapy Bortezomib, Cyclophosphamide, Dexamethasone since 2016, K2-7 from 20 Jul. 16 (350 μg), VAS before 9, scored 11 Jan. 17) | VAS Score ([2]; Patient 10, chemotherapy Lenalidomide, Dexamethasone since 2016, K2-7 from 10 Jun. 17 (350 μg), VAS before 8, scored 10 Jan. 18) | VAS Score ([2]; Patient 11, chemotherapy Dexamethasone since 2016, K2-7 from 25 Mar. 17 (350 μg), VAS before 9, scored 29 Sep. 17) | flare up of symptoms of drug-induced peripheral neuropathy ([2]; continuation of vitamin K2-7 during subsequent chemotherapy cycles) | adverse events during the vitamin K2-7 therapy ([2]; multiple myeloma patients on chemotherapy) | effect of continued treatment after reaching VAS score of 2 ([2]; treatment continued after VAS score of 2) | symptoms of toxicity [3]
CC1=C(C/C=C(\C)CCC[C@H](C)CCC[C@H](C)CCCC(C)C)C(=O)c2ccccc2C1=O [vitamin K1, phylloquinonc] | 1.5 h | – | – | – | – | – | – | – | – | – | – | – | – | – | – | – | –
CC(C)=CCC/C(C)=C/CC/C(C)=C/CC/C(C)=C/CC/C(C)=C/CC/C(C)=C/CC/C(C)=C/CC1=C(C)C(=O)c2ccccc2C1=O [Vitamin K2-7, vitamin K2-7] | more than 72 hours | significant improvement | 2 | 2 | 2 | 1 | 2 | 2 | 2 | 2 | 2 | 3 | 2 | prevented the flair up | no adverse events were noted | stabilised the VAS Score | have not produced symptoms of toxicity
